In assay [1] the test system is B16. Description: Antiproliferative activity against mouse B16 cells after 48 hrs by MTT assay. The settings on record: B16, 48 h. Format: functional, cell-based. (In general: Tetrazolium dyes change colour on reduction, which living cells bring about.)
Assay [2] has as its system HeLa. Description: Antiproliferative activity against human HeLa cells after 48 hrs by MTT assay. Format: functional, cell-based.
For assay [3], the system named is DU-145. In words: Antiproliferative activity against human DU145 cells after 48 hrs by MTT assay. The settings on record: DU-145, 48 h. Format: functional, cell-based.
The subject of assay [4] is A549. Description: Antiproliferative activity against human A549 cells after 48 hrs by MTT assay. Format: functional, cell-based. The note with it: A549, 48 h.
Assay [5] concerns the target Tubulin (Sus scrofa) (UniProt P02554+P02550). Description: Inhibition of porcine brain tubulin polymerization at 3 uM after 1 hr by fluorescence assay.
Assay [6] concerns A549. In words: Cell cycle arrest in human A549 cells assessed as accumulation at S phase at 1 uM after 48 hrs by propidium iodide based flow cytometry (reference value: 3.59%). Format: functional. (In general: Flow cytometry measures light scatter and fluorescence of single cells or particles in a stream.)
Assay [7] deals with A549. Description: Induction of apoptosis in human A549 cells assessed as viable cells at 1 uM after 48 hrs by annexin V-FITC and propidium iodide double staining based flow cytometric analysis (reference value: 99.79%). Format: functional. The settings on record: A549, 48 h, read-out: Activity.
The test system of assay [8] is A549. Description: Cell cycle arrest in human A549 cells assessed as accumulation at sub G1 phase at 1 uM after 48 hrs by propidium iodide based flow cytometry (reference value: 0.65%). Format: functional.
In assay [9] the test system is A549. In words: Cell cycle arrest in human A549 cells assessed as accumulation at G0/G1 phase at 1 uM after 48 hrs by propidium iodide based flow cytometry (reference value: 85.63%). Format: functional.
Assay [10] concerns A549. Description: Cell cycle arrest in human A549 cells assessed as accumulation at G2/M phase at 1 uM after 48 hrs by propidium iodide based flow cytometry (reference value: 10.39%). Format: functional.
For assay [11], the system named is A549. Description: Induction of apoptosis in human A549 cells assessed as dead cells at 1 uM after 48 hrs by annexin V-FITC and propidium iodide double staining based flow cytometric analysis (Rvb =0.07%). It counts as functional.
Assay [12] concerns A549. In words: Induction of apoptosis in human A549 cells assessed as late apoptotic cells at 1 uM after 48 hrs by annexin V-FITC and propidium iodide double staining based flow cytometric analysis (reference value: 0.14%). Format: functional.
Assay [13] relates to A549. In words: Induction of apoptosis in human A549 cells assessed as early apoptotic cells at 1 uM after 48 hrs by annexin V-FITC and propidium iodide double staining based flow cytometric analysis (reference value: 0%). It counts as functional.
The test system of assay [14] is A549. Description: Induction of apoptosis in human A549 cells assessed as DNA fragmentation at 1 uM after 48 hrs by ethidium bromide based agarose gel electrophoresis. It counts as functional, cell-based.
Assay [15] concerns A549. Description: Cell cycle arrest in human A549 cells assessed as accumulation at G0/G1 phase at 2 uM after 48 hrs by propidium iodide based flow cytometry (reference value: 85.63%). It counts as functional.
The subject of assay [16] is A549. In words: Induction of apoptosis in human A549 cells assessed as late apoptotic cells at 2 uM after 48 hrs by annexin V-FITC and propidium iodide double staining based flow cytometric analysis (reference value: 0.14%). Format: functional.
The test system of assay [17] is A549. Description: Induction of apoptosis in human A549 cells assessed as […] condensation at 1 uM after 48 hrs by Hoechst 33342 based fluorescent microscopic analysis. It counts as functional, cell-based.
Assay [18] concerns A549. Description: Induction of apoptosis in human A549 cells assessed as early apoptotic cells at 2 uM after 48 hrs by annexin V-FITC and propidium iodide double staining based flow cytometric analysis (reference value: 0%). It counts as functional.
For assay [19], the system named is A549. In words: Cell cycle arrest in human A549 cells assessed as accumulation at G2/M phase at 2 uM after 48 hrs by propidium iodide based flow cytometry (reference value: 10.39%). It counts as functional.
The subject of assay [20] is A549. In words: Induction of apoptosis in human A549 cells assessed as nuclear fragmentation at 1 uM after 48 hrs by Hoechst 33342 based fluorescent microscopic analysis. It counts as functional, cell-based.
For assay [21], the system named is A549. In words: Induction of apoptosis in human A549 cells assessed as viable cells at 2 uM after 48 hrs by annexin V-FITC and propidium iodide double staining based flow cytometric analysis (reference value: 99.79%). The settings on record: A549, 48 h, read-out: Activity. Format: functional.
Assay [22] concerns A549. In words: Cell cycle arrest in human A549 cells assessed as accumulation at sub G1 phase at 2 uM after 48 hrs by propidium iodide based flow cytometry (reference value: 0.65%). Format: functional.
Assay [23] relates to A549. In words: Induction of apoptosis in human A549 cells assessed as caspase-3 activation at 1 uM after 48 hrs by Ac-DEVD substrate based fluorescence assay relative to control. Format: functional.
Assay [24] deals with A549. Description: Induction of apoptosis in human A549 cells assessed as apoptotic bodies at 1 uM after 48 hrs by Hoechst 33342 based fluorescent microscopic analysis. It counts as functional, cell-based.
The subject of assay [25] is A549. In words: Inhibition of microtubule organization in human A549 cells at 1 uM after 48 hrs by immunofluorescence microscopic analysis. Format: cell-based.
Assay [26] deals with A549. In words: Induction of apoptosis in human A549 cells assessed as caspase-3 activation at 2 uM after 48 hrs by Ac-DEVD substrate based fluorescence assay relative to control. It counts as functional.
For assay [27], the system named is A549. Description: Cell cycle arrest in human A549 cells assessed as accumulation at S phase at 2 uM after 48 hrs by propidium iodide based flow cytometry (reference value: 3.59%). Format: functional.
For assay [28], the target named is Tubulin (Sus scrofa, UniProt P02554+P02550). In words: Inhibition of porcine brain tubulin polymerization after 1 hr by fluorescence assay.
In assay [29] the test system is A549. Description: Induction of apoptosis in human A549 cells assessed as dead cells at 2 uM after 48 hrs by annexin V-FITC and propidium iodide double staining based flow cytometric analysis (Rvb =0.07%). It counts as functional.

One may read the IC50 as the point on the concentration scale where inhibition reaches its midpoint. High values mean lower potency, low ones higher potency. A word on the inhibition: it is the percentage by which the read-out fell short of the control.

Calls of active or inactive are those of the source. No cut-off for these calls is given here. A value given as a limit tells only on which side of the number the result lay.

Chain of Tubulin (Sus scrofa) (P02550 whole entry, looked up): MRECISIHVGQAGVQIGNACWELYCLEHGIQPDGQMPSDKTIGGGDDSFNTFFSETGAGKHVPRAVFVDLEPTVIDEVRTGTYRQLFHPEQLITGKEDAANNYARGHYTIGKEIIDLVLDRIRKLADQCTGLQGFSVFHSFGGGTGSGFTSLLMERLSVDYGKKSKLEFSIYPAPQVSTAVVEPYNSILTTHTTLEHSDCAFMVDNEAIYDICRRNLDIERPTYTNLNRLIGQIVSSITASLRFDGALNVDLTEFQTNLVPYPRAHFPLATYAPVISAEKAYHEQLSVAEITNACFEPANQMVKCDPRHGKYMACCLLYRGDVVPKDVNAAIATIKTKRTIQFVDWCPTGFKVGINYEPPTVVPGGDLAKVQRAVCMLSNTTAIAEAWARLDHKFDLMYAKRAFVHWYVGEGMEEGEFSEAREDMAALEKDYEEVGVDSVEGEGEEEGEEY
Chain of Tubulin (Sus scrofa) (P02554 whole entry, looked up): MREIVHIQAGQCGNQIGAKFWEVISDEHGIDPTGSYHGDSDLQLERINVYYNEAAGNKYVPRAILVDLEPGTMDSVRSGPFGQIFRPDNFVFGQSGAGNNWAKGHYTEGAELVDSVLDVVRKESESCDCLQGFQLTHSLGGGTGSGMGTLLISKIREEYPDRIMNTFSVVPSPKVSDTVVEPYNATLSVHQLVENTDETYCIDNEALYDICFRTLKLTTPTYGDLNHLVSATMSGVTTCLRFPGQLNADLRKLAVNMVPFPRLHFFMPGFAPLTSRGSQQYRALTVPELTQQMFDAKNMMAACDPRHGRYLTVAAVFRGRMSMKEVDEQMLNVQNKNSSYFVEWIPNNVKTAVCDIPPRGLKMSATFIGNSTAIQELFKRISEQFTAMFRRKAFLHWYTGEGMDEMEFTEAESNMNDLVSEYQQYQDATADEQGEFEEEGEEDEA

Turning to `Cc1ccc2nc(-c3c(-c4ccc(F)cc4)nc4ncccn34)[nH]c2c1`, the IC50 in [1] is 15.1 µM; in [2], 12.9 µM; in assay [3], 10.2 µM; in [4], greater than 30 µM.
For `COc1ccc(-c2nc3ccccn3c2-c2nc3ccc(F)cc3[nH]2)cc1` the same measures were 14.8 µM, 17.6 µM, 15.9 µM and 14.6 µM.
On the same counts, the results for `Cc1ccc2nc(-c3c(-c4ccccc4)nc4ncccn34)[nH]c2c1` are 8.91 µM, 7.58 µM, 2.34 µM and 2.19 µM.
On the same counts, the results for `COc1ccc(-c2nc3ncccn3c2-c2nc3ccccc3[nH]2)cc1` are 16.7 µM, 9.06 µM, 13.2 µM and 10.5 µM.
On to `COC(=O)Nc1nc2cc(C(=O)c3cccs3)ccc2[nH]1` [NOCODAZOLE], for which the IC50 was determined as 0.69 µM in assay [1], 2.23 µM in assay [2], 0.25 µM in assay [3] and 1.62 µM in assay [4]. The inhibition in [5] was 66.9%. The Activity in [6] was found to be 0.69%; in assay [8], 9.23%; in [9], 63.76%; in assay [10], 24.28%; in assay [11] it was 0.04%; in assay [12] it was 1.29%. Besides, the Activity in assay [13] was 11.71%. Besides, the viability at 1 µM in assay [7] was determined as 87%.
As for `COc1ccc(-c2nc3ncccn3c2-c2nc3ccc(OC)cc3[nH]2)cc1`, the IC50 was 19.9 µM in assay [1], 15.8 µM in assay [2], 5.62 µM in [3] and 6.91 µM in [4].
On to `COc1ccc(-c2nc3ccccn3c2-c2nc3ccc(Cl)cc3[nH]2)cc1`, for which the IC50 in assay [1] was 16 µM; in [2] it was 14.5 µM; in [3], 19.5 µM; in assay [4], 19.4 µM.
On the same counts, the results for `COc1ccc2nc(-c3c(-c4ccc(F)cc4)nc4ncccn34)[nH]c2c1` are greater than 30 µM, 19.9 µM, 16 µM and 18.6 µM.
On the same counts, the results for `Fc1ccc2nc(-c3c(-c4ccccc4)nc4ncccn34)[nH]c2c1` are 17 µM, 6.91 µM, 4.89 µM and 8.51 µM.
For `Clc1ccc2nc(-c3c(-c4ccccc4)nc4ncccn34)[nH]c2c1` the same measures were greater than 30 µM, greater than 30 µM, greater than 30 µM and greater than 30 µM.
`COc1ccc(-c2nc3ncccn3c2-c2nc3ccc(F)cc3[nH]2)cc1`: the IC50 was 19.4 µM in assay [1], 17 µM in assay [2], 13.8 µM in assay [3] and 15.1 µM in assay [4].
Turning to `Fc1ccc(-c2nc3ncccn3c2-c2nc3ccc(F)cc3[nH]2)cc1`, the IC50 stood at 15.6 µM in assay [1], 15.3 µM in assay [2], 14.4 µM in assay [3] and 19.2 µM in assay [4].
For `COc1ccc(-c2nc3ccccn3c2-c2nc3ccc(OC)cc3[nH]2)cc1` the same measures were greater than 30 µM, greater than 30 µM, greater than 30 µM and greater than 30 µM.
`c1ccc(-c2nc3ncccn3c2-c2nc3ccccc3[nH]2)cc1`: the IC50 in assay [1] worked out at 10.5 µM; in assay [2] it was 2.25 µM; in assay [3], 2.34 µM; in [4], 1.92 µM; in assay [28], 2.26 µM. Besides, the result in assay [14], in [17], in assay [20] and in [24] was Active. Also, in [5], the inhibition was determined as 60.5%. For the same compound, the Activity in [15] was 64.8%; in assay [6] it was 3.71%; in assay [16], 1.2%; in assay [18], 10.25%; in assay [19] it was 33.8%; in [22], 2.7%. The Activity was 1.28% in [8]; 83.5% in assay [9]; 12.6% in [10]; 0.35% in [11]; 2.69% in assay [12]; 2.88% in [27]. Also, the Activity is on record as 0.18% in assay [29] and 5.08% in assay [13]. In addition, the viability at 1 µM in [7] turned out to be 91.9%. Also, the viability at 2 µM in assay [21] worked out at 88.4%. The “fold change (FC)” value in [23] and in assay [26] was 2 in each case. Besides, the inhibition entry in assay [25] was “Active”.
For `COc1ccc(-c2nc3ccccn3c2-c2nc3ccccc3[nH]2)cc1`, the concentration for half-maximal inhibition (IC50) in assay [1] was greater than 30 µM; in assay [2], 20.4 µM; in assay [3], 24 µM; in assay [4], 23.2 µM.
For `Fc1ccc(-c2nc3ncccn3c2-c2nc3ccc(Cl)cc3[nH]2)cc1` the same measures were greater than 30 µM, 20.3 µM, 12.6 µM and 19.7 µM.
Turning to `COc1ccc(-c2nc3ccccn3c2-c2nc3ccc(C)cc3[nH]2)cc1`, the IC50 in assay [1] is greater than 30 µM; in assay [2], 26.4 µM; in assay [3], greater than 30 µM; in [4], greater than 30 µM.
In the case of `COc1ccc(-c2nc3ncccn3c2-c2nc3ccc(C)cc3[nH]2)cc1`, the IC50 in [1] worked out at 3.63 µM; in assay [2] it was 2.57 µM; in assay [3] it was 7.08 µM; in [4], 1.48 µM; in [28], 2.06 µM. Also, the outcome in assay [14], in [17], in assay [20] and in [24] was Active. The compound further returned an inhibition in assay [5] of 61.1%. For the same compound, the Activity in assay [15] was 59.33%; in [6], 3.65%; in [16] it was 1.3%; in [18] it was 13.49%; in assay [19], 29%; in assay [22], 2.19%. In addition, the Activity in assay [8] was found to be 0.76%; in assay [9], 82.68%; in assay [10], 11.7%; in assay [11], 0.22%; in assay [12] it was 1.43%; in [27], 3.63%. Besides, the Activity in assay [29] was found to be 0.07%; in assay [13], 8.18%. The viability at 1 µM in [7] is 90.2%. For the same compound, the viability at 2 µM in [21] is 85.1%. Further, the “fold change (FC)” value in assay [23] and in [26] was 2 in each case. Further, the inhibition entry in [25] is “Active”.
Regarding `COc1ccc(-c2nc3ncccn3c2-c2nc3ccc(Cl)cc3[nH]2)cc1`, the IC50 is 26.8 µM in [1], 14 µM in assay [2], 19.9 µM in assay [3] and 10.2 µM in [4].
For `Fc1ccc(-c2nc3ncccn3c2-c2nc3ccccc3[nH]2)cc1` the same measures were 16.6 µM, 8.19 µM, 7.78 µM and 11 µM.
As to `COc1ccc2nc(-c3c(-c4ccccc4)nc4ncccn34)[nH]c2c1`, the IC50 in assay [1] was found to be 10.2 µM; in assay [2], 9.33 µM; in [3], 3.71 µM; in assay [4] it was 2.12 µM.

The record behind these values is ChEMBL document CHEMBL3632478, “Design, synthesis and biological evaluation of imidazopyridine/imidazopyrimidine-benzimidazole conjugates as potential anticancer agents” (Medchemcomm, 2015).
